In ChEMBL document CHEMBL5335773, “Synthesis and structure-activity relationship of new nicotinamide phosphoribosyltransferase inhibitors with antitumor activity on solid and haematological cancer” (Eur J Med Chem, 2023):
pIC50: −log10 of the molar value.

How the values were obtained:
[1] = system: MIA PaCa-2; assay: cells; settings: Homo sapiens, MIA PaCa-2, 72 h
[2] = system: NAMALVA; assay: Cytotoxicity against human NAMALVA cells assessed as inhibition of cell viability at 72 hrs by SRB assay; format: functional, cell-based
[3] = system: ML-2; assay: Cytotoxicity against human ML-2 cells assessed as inhibition of cell viability at 72 hrs by SRB assay; format: functional, cell-based; settings: ML-2, 72 h
[4] = system: MIA PaCa-2; assay: cells; settings: Homo sapiens, MIA PaCa-2, 24 h
[5] = molecular target: Nicotinamide phosphoribosyltransferase (Homo sapiens, UniProt P43490); assay: Inhibition of full-length recombinant human NAMPT (2 to 491 residues) expressed in Escherichia coli using NAM as substrate preincubated for 5 mins followed by substrate addition measured after 15 mins by fluorescence based assay
[6] = system: RPMI-8226; assay: Cytotoxicity against human RPMI-8226 cells assessed as inhibition of cell viability at 72 hrs by SRB assay; format: functional, cell-based; settings: RPMI-8226, 72 h
[7] = system: NB-4; assay: Cytotoxicity against human NB4 cells assessed as inhibition of cell viability at 72 hrs by SRB assay; format: functional, cell-based; settings: NB-4, 72 h
[8] = system: Jurkat; assay: Cytotoxicity against human Jurkat cells assessed as inhibition of cell viability at 72 hrs by SRB assay; format: functional, cell-based

Sequence of Nicotinamide phosphoribosyltransferase (P43490 whole entry, the tested form may be a part): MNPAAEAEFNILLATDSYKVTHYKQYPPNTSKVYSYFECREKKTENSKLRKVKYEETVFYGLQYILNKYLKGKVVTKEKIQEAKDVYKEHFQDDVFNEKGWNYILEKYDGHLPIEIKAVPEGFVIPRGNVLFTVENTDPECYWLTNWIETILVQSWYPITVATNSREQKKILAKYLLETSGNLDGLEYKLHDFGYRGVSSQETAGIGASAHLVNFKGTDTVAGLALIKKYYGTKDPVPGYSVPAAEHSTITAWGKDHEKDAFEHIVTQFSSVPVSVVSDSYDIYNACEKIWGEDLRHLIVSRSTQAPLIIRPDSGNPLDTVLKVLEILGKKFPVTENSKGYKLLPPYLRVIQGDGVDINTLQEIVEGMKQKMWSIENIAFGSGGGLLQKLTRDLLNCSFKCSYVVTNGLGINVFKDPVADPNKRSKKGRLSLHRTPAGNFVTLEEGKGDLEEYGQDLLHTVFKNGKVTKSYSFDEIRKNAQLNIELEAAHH

Compound | pIC50 [1] | pIC50 [4] | also measured
O=C(CCCCCCNC(=S)Nc1cccnc1)N(Cc1ccco1)C1CCCC1 | 6.82 |  | 
O=S(=O)(CCCCCCNC(=S)Nc1cccnc1)N(Cc1ccco1)C1CCCC1 | 7.79 | 9.37 | pIC50 [2]: 8.37; pIC50 [3]: 8.51; pIC50 [5]: 7.16; pIC50 [6]: 7.70
O=C(CCCCCCCn1cc(-c2cccnc2)nn1)n1cccc1 | 6.31 |  | 
COc1ccc2[nH]c(C(=O)N3CCC(CCCCn4cc(-c5cccnc5)nn4)CC3)cc2c1 | 6.07 |  | 
O=C(Nc1ccc(C(=O)N(Cc2ccco2)C2CCCC2)cc1)N1Cc2ccccc2C1 | < 6.00 |  | 
N#C/N=C(\NCCCCCCCCNC(=O)c1cc2ccccc2[nH]1)Nc1cccnc1 | 7.09 |  | 
N#C/N=C(\NCCCCCCC(=O)N(Cc1ccc(Cl)cc1)Cc1ccco1)N1Cc2ccccc2C1 | < 6.00 |  | 
O=C(NCCCCCCCCNC(=S)Nc1cccnc1)c1cc2ccccc2[nH]1 | 6.22 |  | 
N#C/N=C(\NCCCCCCS(=O)(=O)N(Cc1ccco1)C1CCCC1)Nc1ccccc1 | 6.75 | 8.33 | 
O=C(NCc1ccco1)c1ccc(NC(=O)N2Cc3ccccc3C2)cc1 | < 6.00 |  | 
O=C(c1cc2ccccc2[nH]1)N1CCC(CCCCn2cc(-c3cccnc3)nn2)CC1 | 6.14 |  | 
N#C/N=C(\NCCCCCCCC(=O)NCc1ccco1)Nc1ccncc1 | < 6.00 |  | 
O=C(CCCCCCCNC(=S)Nc1cccnc1)n1cccc1 | 6.07 |  | 
N#C/N=C(\NCCCCCC(=O)N(Cc1ccco1)c1ccc(Cl)cc1)Nc1ccncc1 | 8.20 | 9.30 | 
O=C(CCCCCCCn1cc(-c2cccnc2)nn1)NCc1ccco1 | < 6.00 |  | 
N#C/N=C(\NCCCCCCC(=O)N(Cc1ccco1)c1ccc([N+](=O)[O-])cc1)Nc1ccncc1 | 8.68 | 9.85 | pIC50 [2]: 8.86; pIC50 [3]: 9.49; pIC50 [6]: 8.67
N#C/N=C(\NCCCCC1CCN(C(=O)c2cc3ccccc3[nH]2)CC1)Nc1cccnc1 | 6.95 |  | 

Compound | pIC50 [1] | pIC50 [4] | also measured
N#C/N=C(\NCCCCCCC(=O)N(CCCN1CCOCC1)Cc1ccco1)Nc1ccncc1 | 8.52 | 8.84 | 
N#C/N=C(\NCCCCCCC(=O)N(CCCN1CCCC1)Cc1ccco1)Nc1ccncc1 | 8.35 | 8.70 | 
N#C/N=C(\NCCCCCCC(=O)N(CCCN1CCOCC1)Cc1ccco1)N1Cc2ccccc2C1 | < 6.00 |  | 
CCOC(=O)c1ccc(N/C(=N/C#N)NCCCCCCS(=O)(=O)N(Cc2ccco2)C2CCCC2)cc1 | 6.13 |  | 
N#C/N=C(\NCCCCCCC(=O)N(Cc1ccco1)C1CCCC1)N1Cc2ccccc2C1 | < 6.00 |  | 
O=C(c1cc2ccccc2[nH]1)N1CCC(CCCCNC(=S)Nc2cccnc2)CC1 | < 6.00 |  | 
N#C/N=C(\NCCCCCCn1cc(CN(CCCN2CCOCC2)Cc2ccco2)nn1)Nc1ccncc1 | 7.59 | 8.63 | 
N#C/N=C(\NCCCCCCS(=O)(=O)N(Cc1ccco1)C1CCCC1)Nc1ccc(N=[N+]=[N-])cc1 | 6.00 |  | 
O=C(CCCCCCCNC(=S)Nc1cccnc1)NCc1ccco1 | < 6.00 |  | 
N#C/N=C(\NCCCCCCC(=O)N(Cc1ccco1)c1ccc(Cl)cc1)Nc1ccncc1 | 8.77 | 9.77 | 
N#C/N=C(\NCCCCCC(=O)N(Cc1ccco1)C1CCCC1)Nc1ccncc1 | 8.52 | 9.70 | pIC50 [2]: 8.75; pIC50 [3]: 9.44; pIC50 [6]: 8.72
O=C(NCCCCCCCCn1cc(-c2cccnc2)nn1)c1cc2ccccc2[nH]1 | 6.26 |  | 
N#C/N=C(\NCCCCCCS(=O)(=O)N(CCCN1CCOCC1)Cc1ccco1)Nc1ccncc1 | 8.65 | 8.82 | 
N#C/N=C(\NCCCCCCC(=O)N(Cc1ccco1)C1CCCC1)Nc1ccccc1 | < 6.00 |  | 
N#C/N=C(\NCCCCCC(=O)N(CCCN1CCOCC1)Cc1ccco1)Nc1ccncc1 | 7.79 | 7.95 | 
O=C(/C=C/c1cccnc1)NCCCCC1CCN(C(=O)c2ccccc2)CC1 [DAPORINAD] | 8.62 | 9.47 | pIC50 [7]: 8.70; pIC50 [2]: 9.43; pIC50 [3]: 9.62; pIC50 [8]: 9.14; pIC50 [6]: 9.12
